The text below walks through data of article PMC9905731, “PIN1 and PIN4 inhibition via parvulin impeders Juglone, PiB, ATRA, 6,7,4′-THIF, KPT6566, and EGCG thwarted hepatitis B virus replication” (Frontiers in Microbiology, 2023).

The test system of experiment [1] is HBV-infected HepG2-hNTCP-C9 cells. Put plainly: HBV replication in HBV-infected HepG2-hNTCP-C9 cells. It is filed as cell-based, hepatitis B virus. To be noted: 9 days; 20 μM Juglone or PiB, 30 μM ATRA, 6,7,4′-THIF or KPT6566, 40 μM EGCG; vs solvent. The protocol:
Figure 9 PIN1 and PIN4 Inhibition via Juglone, PiB, ATRA, 6,7,4′-THIF, KPT6566, and EGCG abrogate HBV replication in HBV-infected cells. […] HepG2-hNTCP-C9 cells were seeded and infected, as described previously, in the “Material and Methods” section. Infected cells (lanes 2–3) were treated with solvent (lane 2) or 20 μM Juglone, 20 μM PiB, 30 μM ATRA, 30 μM 6,7,4′-THIF, 30 μM KPT6566, 40 μM EGCG (lane 3) for 9 days, and lysates were subjected to SDS-PAGE and immunoblotting, NAGE, Northern blotting, and Southern blotting. The shown data are representation from three independent experiments. The statistical significance was determined by using Student’s t-test. *p < 0.05, **p < 0.005, ***p < 0.0005 relative to the corresponding control.
HBV inoculum was harvested from HepAD38 cells for infection experiments. HepAD38 cells in DMEM plus 10% FBS, 1% PS, G418 (0.5 mg/ml), insulin (5 μg/ml), and hydrocortisone hemisuccinate (50 μM) were grown, and on every third day after passage of day 10th (till 31st), the media supernatants were collected and concentrated via 20 to 60% sucrose gradient by ultra-centrifugation (Beckman Coulter Optima L-90 K) method, as described previously ([Saeed et al., 2019], [2021]). The HBV DNAs from the pelleted precipitant were examined by Southern blotting. […] The following day, the cell media was refreshed after PBS washing and maintained in 2.5% DMSO containing media. On the 9th day post-infection, the cellular lysates were prepared and subjected to SDS-PAGE and immunoblotting, core particle immunoblotting, and Southern blot analysis. At 5 days post-infection, HBV RNA levels were determined by Northern blotting.
Juglone (Sigma Aldrich, AG17724), PiB (Calbiochem, CAS 64005–90-9), ATRA (Sigma-Aldrich, R2625), 6,7,4′-THIF (Chem Faces, CFN90796), KPT6566 (ProbeChem, PC-61182), or EGCG (Sigma Aldrich, 989–51-5) was treated to Huh7, HepAD38, HepG2, HepG2.2.15, and HepG2-hNTCP-C9 cells. Prior to the conduct of experiments, the cytotoxic effects of Juglone, PiB, ATRA, 6,7,4′-THIF, KPT6566, or EGCG were examined via MTT assay (3-[4,5-dimethylththiazol-2-yl]-2,5-diphenyltetrazolium bromide), as described previously ([Bichko et al., 1985]; [Piracha et al., 2018], [2020]; [Saeed et al., 2019], [2021]). Briefly, selected HCC cell lines (HepG2, Huh7, HepG2.2.15, and HepAD38) in 6 cm plates were treated with Juglone (20 μM), PiB (20 μM), ATRA (30 μM), 6,7,4′-THIF (30 μM), KPT6566 (30 μM), or EGCG (40 μM) at transfection or at the time of TC removal from HepAD38 cells. Juglone (20 μM in ethanol, Sigma Aldrich, AG17724) was treated to 1.3 mer HBV-WT transfected Huh7 cells (Figure 3A) or TC-depleted HepAD38 cells (Figure 3B) or to 1.3 mer HBV-WT transfected HepG2 (Figure 3C) or HepG2.2.15 (Figure 3D) cells for 72 h. PiB (20 μM in DMSO, Calbiochem, CAS 64005-90-9) was treated for 72 h to 1.3 mer HBV-WT transfected Huh7 cells (Figure 4A) or TC-depleted HepAD38 cells (Figure 4B) or to 1.3 mer HBV-WT transfected HepG2 cells (Figure 4C) or HepG2.2.15 (Figure 4D) cells. To examine the effects on HBV replication, ATRA (30 μM in DMSO, R2625 Sigma-Aldrich) was treated for 72 h to 1.3 mer HBV-WT transfected Huh7 cells (Figure 5A) or TC-depleted HepAD38 cells (Figure 5) or to 1.3 mer HBV-WT transfected HepG2 cells (Figure 5C) or HBV replicating HepG2.2.15 (Figure 5D) cells. 6,7,4′-THIF (30 μM in DMSO, CFN90796 Chem Faces) was treated for 72 h to 1.3 mer HBV-WT transfected Huh7 cells (Figure 6A) or TC-depleted HepAD38 cells (Figure 6B) or to 1.3 mer HBV-WT transfected HepG2 cells (Figure 6C) or HBV replicating HepG2.2.15 (Figure 6D) cells. KPT-6566 (30 μM in DMSO, PC-61182 ProbeChem) was treated for 72 h to 1.3 mer HBV-WT transfected Huh7 cells (Figure 7A) or TC-depleted HepAD38 cells (Figure 7B) or to 1.3 mer HBV-WT transfected HepG2 cells (Figure 7C) or HBV replicating HepG2.2.15 (Figure 7D) cells. […]

Another experiment concerns the target PIN4 (Homo sapiens, UniProt Q9Y237). The experiment is described as follows: PIN4 expression by immunoblotting in HCC cells. It is filed as cell-based. To be noted: 30 μM ATRA, 72 h.
In a further experiment the target is T1, PIN1 (Homo sapiens, UniProt Q13526).
T1 construct: Since the endogenous PIN1 and PIN4 levels remained higher in HBV replicating and non-replicating HCC-derived cell lines; endogenous in cells; host or cells: Huh7, HepAD38, HepG2, HepG2.2.15 (human HCC cell lines)
The experiment is described as follows: PIN1 expression by immunoblotting in HCC cells. It is filed as cell-based. Conditions: 30 μM ATRA, 72 h.

PIN4, sequence (Q9Y237 whole entry): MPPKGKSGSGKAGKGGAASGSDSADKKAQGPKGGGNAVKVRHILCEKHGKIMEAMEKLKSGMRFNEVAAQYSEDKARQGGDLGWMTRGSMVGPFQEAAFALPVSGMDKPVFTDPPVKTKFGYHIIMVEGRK
T1 sequence (Q13526 whole entry): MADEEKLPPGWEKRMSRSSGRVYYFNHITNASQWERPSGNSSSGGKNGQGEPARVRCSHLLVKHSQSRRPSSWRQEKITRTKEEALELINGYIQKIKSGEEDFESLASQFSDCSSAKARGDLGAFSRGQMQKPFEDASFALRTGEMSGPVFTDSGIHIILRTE

With `O=c1c(-c2ccc(O)cc2)coc2cc(O)c(O)cc12` [6,7,4′-THIF, 6,7-dihydroxy-3-(4-hydroxyphenyl)-4H-chromen-4-one], the “HBV replication in infected cells (HBc, HBV transcripts, core particles, HBV DNA)” value (“HBV replication in infected cells” for short) in experiment [1] is on record as “restricted HBV replication”.
`CC1=C(/C=C/C(C)=C/C=C/C(C)=C/C(=O)O)C(C)(C)CCC1` [ATRA, All-trans-retinoic acid]: the “expression level of PIN4” value at PIN4 is “reduced”. Besides, in experiment [1], the “HBV replication in infected cells” value is “restricted HBV replication”. Moreover, on PIN1, the “expression level of PIN1” value was “reduced”.
Turning to `O=C(O[C@@H]1Cc2c(O)cc(O)cc2O[C@@H]1c1cc(O)c(O)c(O)c1)c1cc(O)c(O)c(O)c1` [EGCG, Epigallocatechin gallate], in experiment [1], the “HBV replication in infected cells” value is “restricted HBV replication”.
On to `O=C1C=CC(=O)c2c(O)cccc21` [Juglone, 5-hydroxyl-1,4-naphthoquinone], for which, in experiment [1], the “HBV replication in infected cells” value is “restricted HBV replication”.
The same measure, in the same setting: next, `CC(C)(C)c1ccc(S(=O)(=O)N=C2C=C(SCC(=O)O)C(=O)c3ccccc32)cc1` [KPT6566, 2-[[4-[[[4-(1,1-dimethylethyl)phenyl]sulfonyl]imino]-1,4-dihydro-1-oxo-2-naphthalenyl]thio] acetic acid]: “restricted HBV replication”; `CCOC(=O)CN1C(=O)c2ccc3c4c(ccc(c24)C1=O)C(=O)N(CC(=O)OCC)C3=O` [PiB, 1,3,6,8-tetrahydro-1,3,6,8-tetraoxo-benzo [lmn][3,8] phenanthroline-2,7-diacetic acid, 2,7-diethyl ester]: “restricted HBV replication”.
